Data published in patent US12187722B2, “Small molecule inhibitors of TEAD transcription factors” (The General Hospital Corporation, priority 2019, dated 2025).
“And” between values parts separate entries of the source, which are not always exact repeats. Equal entries are not always repeated.

These compounds were tested against TEAD2 (Homo sapiens (Human), UniProt Q15562) (assay: In vitro palmitoylation (TEAD2 autopalmitoylation, streptavidin blot)). Conditions: Table 2, result printed in words.
Sequence of TEAD2 (Q15562 whole entry): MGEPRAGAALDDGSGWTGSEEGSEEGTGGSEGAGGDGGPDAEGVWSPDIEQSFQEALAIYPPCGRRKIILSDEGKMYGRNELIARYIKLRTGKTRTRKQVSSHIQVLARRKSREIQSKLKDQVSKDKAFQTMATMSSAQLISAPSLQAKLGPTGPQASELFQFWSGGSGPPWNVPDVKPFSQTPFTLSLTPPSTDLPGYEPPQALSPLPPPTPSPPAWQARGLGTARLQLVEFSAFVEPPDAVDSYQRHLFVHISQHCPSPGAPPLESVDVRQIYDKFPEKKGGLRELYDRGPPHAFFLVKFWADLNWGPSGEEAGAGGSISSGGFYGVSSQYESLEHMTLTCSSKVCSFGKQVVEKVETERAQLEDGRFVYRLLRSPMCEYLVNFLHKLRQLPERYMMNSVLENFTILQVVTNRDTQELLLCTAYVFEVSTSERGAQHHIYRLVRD
Type: biochemical
Experimental: Recombinant GST-TEAD2 or His6TEAD2 (500 ng) protein was pre-incubated with the compounds at indicated concentrations for 15 min. and then incubated with 1 μM of alkyne palmitoyl-5 CoA (Cayman Chemical) for 30 min or 50 mM MES, pH 6.4, followed by Click reaction with biotin-azide as previously described (Zheng, B. et al., J. Am. Chem. Soc., 2013, 135, 7082-7085). Click reaction was performed with 100 μM biotin-azide, 1 mM tris(2-carboxyethyl) phosphine hydrochloride (TCEP), 100 μM tris[(1-benzyl-1H-1,2,3-triazol-4-yl) methyl] amine (TBTA) and 1 mM CuSO4 for 1 h at RT.
The reactions were terminated by the addition of 12 μL of 6×SDS-sample loading buffer (50 mM Tris-HCl, pH 6.8, 6% SDS, 48% Glycerol, 0.03% Bromophenol Blue, 30 mM EDTA, 9% MeSH). Samples were analysed by SDS-PAGE and Western blot was performed by probing with streptavidin HRP and histidine HRP antibodies independently. Bands intensity obtained from streptavidin blot were quantified using BIORAD, Gel doc system and the percentage of inhibition of Tead2 auto palmitoylation is determined by comparing to the DMSO control treated samples.
These compounds were tested for activity in inhibiting TEAD2 palmitoylation in the assay described above.

| inhibition of TEAD2 palmitoylation (YES/NO) | SMILES |
| --- | --- |
| YES | O=C(O)c1ccccc1Nc1ccc(-c2cnc(-c3ccccc3)s2)cc1 [Compound 68] |

Same assay, conditions: compound at 10 μM; Table 2

| SMILES | inhibition at 10 µM | % of inhibition of TEAD2 palmitoylation at 10 μM |
| --- | --- | --- |
| N#Cc1ccccc1Nc1ccc(Nc2ccc(C34CC5CC(CC(C5)C3)C4)cc2Cl)cc1 [Compound 7] | 30% | – |
| Clc1cc(C23CC4CC(CC(C4)C2)C3)ccc1Nc1ccc(Cn2cncn2)cc1 [Compound 9] | 76% | – |
| Clc1cc(C23CC4CC(CC(C4)C2)C3)ccc1Nc1ccc(Nc2ccccn2)cc1 [Compound 10] | 0% | – |
| O=C1CC[n+]2ccccc2N1c1ccc(Nc2ccc(C34CC5CC(CC(C5)C3)C4)cc2Cl)cc1 [Compound 11] | 0% | – |
| CCOC(=O)c1cccc(Nc2ccc(C(=O)Nc3ccc(C45CC6CC(CC(C6)C4)C5)cc3)cc2)n1 [Compound 16] | 0% | – |
| COC(=O)c1cccnc1Nc1ccc(Nc2ccc(C34CC5CC(CC(C5)C3)C4)cc2Cl)cc1 [Compound 17] | 7% | – |
| COc1cccc2c1S(=O)(=O)N=C2Nc1ccc(C23CC4CC(CC(C4)C2)C3)cc1 [Compound 19] | 35% | – |
| O=C(O)c1ccccc1Nc1ccc(Nc2ccc(C34CC5CC(CC(C5)C3)C4)cc2)cc1 [Compound 24, 2-((4-((4-((3R,5R)-adamantan-1-yl)phenyl)amino)phenyl)amino)benzoic acid] | 56% | – |
| O=C(O)c1ccccc1Nc1cc(Nc2ccc(C34CC5CC(CC(C5)C3)C4)cc2)cc(C(F)(F)F)c1 [Compound 26] | 90% | – |
| O=C(O)c1cc(C(F)(F)F)ccc1Nc1cc(Nc2ccc(C34CC5CC(CC(C5)C3)C4)cc2)cc(C(F)(F)F)c1 [Compound 29] | 90% | – |
| Cc1cc(Nc2ccc(C34CC5CC(CC(C5)C3)C4)cc2)cc(Nc2ncccc2C(=O)O)c1 [Compound 32] | 60% | – |
| O=C(O)c1ccccc1Nc1cc(Nc2ccc(C34CC5CC(CC(C5)C3)C4)cc2Cl)cc(C(F)(F)F)c1 [Compound 33] | 50% | – |
| O=C(Nc1ccc(C23CC4CC(CC(C4)C2)C3)cc1Br)c1ccc(Nc2ccccc2C(=O)O)cc1 [Compound 36] | 100% | – |
| O=C(O)[C@@H]1CCCN1C(=O)Nc1ccc(C23CC4CC(CC(C4)C2)C3)cc1 [Compound 38] | 7% | – |
| O=C(O)C1CCCC1Nc1ccc(Nc2ccc(C34CC5CC(CC(C5)C3)C4)cc2Cl)cc1 (centres unmarked) [Compound 39] | 59% | – |
| O=C(O)C1CCCC1Nc1ccc(Nc2ccc(C34CC5CC(CC(C5)C3)C4)cc2Cl)cc1 (centres unmarked) [Compound 40] | – | 43% |
| CC(C)c1ccccc1-c1ccc(Nc2ccc(Nc3ccccc3C(=O)O)cc2)c(Cl)c1 [Compound 41] | 52% | – |
| O=C(O)C1CCCCC1Nc1ccc(Nc2ccc(C34CC5CC(CC(C5)C3)C4)cc2Cl)cc1 (centres unmarked) [Compound 47] | – | 83% |

| SMILES | inhibition at 10 µM | % of inhibition of TEAD2 palmitoylation at 10 μM |
| --- | --- | --- |
| O=C(O)[C@@H]1CCCN1C(=O)c1ccc(Nc2ccc(C34CC5CC(CC(C5)C3)C4)cc2Cl)cc1 [Compound 48] | 87% | – |
| O=C(O)[C@@H]1CCCN1C(=O)Nc1ccc(Nc2ccc(C34CC5CC(CC(C5)C3)C4)cc2Cl)cc1 [Compound 50] | 0% | – |
| O=C(O)[C@H]1CCCN1C(=O)Nc1ccc(Nc2ccc(C34CC5CC(CC(C5)C3)C4)cc2Cl)cc1 [Compound 52] | 79% | – |
| COc1ccccc1-c1ccc(Nc2ccc(Nc3ccccc3C(=O)O)cc2)c(Cl)c1 [Compound 56] | 0% | – |
| O=C(O)c1ccccc1Nc1ccc(Nc2ccc(-c3ccccc3Cl)cc2Cl)cc1 [Compound 58] | 60% | – |
| O=C(O)c1cccnc1Nc1ccc(Nc2ccc(C34CC5CC(CC(C5)C3)C4)cc2Cl)cc1 [Compound 59] | 99% | – |
| O=C(O)c1cccnc1Nc1ccc(C23CC4CC(CC(C4)C2)C3)cc1Cl [Compound 60] | 100% | – |
| O=C(O)C1CCCC1Nc1cc(Nc2ccc(C34CC5CC(CC(C5)C3)C4)cc2Cl)cc(C(F)(F)F)c1 (centres unmarked) [Compound 64] | 0% | – |
| O=C(O)C1CCCC1Nc1ccc(C23CC4CC(CC(C4)C2)C3)cc1 (centres unmarked) [Compound 65] | 74% | – |
| O=C(O)C1CCCCC1Nc1ccc(C23CC4CC(CC(C4)C2)C3)cc1 (centres unmarked) [Compound 66] | 25% | – |
| O=C(N[C@H]1CCC[C@H]1C(=O)O)c1ccc(Nc2ccc(C34CC5CC(CC(C5)C3)C4)cc2Cl)cc1 [Compound 77] | 52% | – |
| Cc1cc(C23CC4CC(CC(C4)C2)C3)cc(C)c1Nc1ccc(Nc2ccccc2C(=O)O)cc1 [Compound 79] | 45% | – |
| O=C(O)c1ccc(Nc2ccc(Nc3ccc(C45CC6CC(CC(C6)C4)C5)cc3)cc2)cc1 [Compound 81] | 78% | – |
| O=C(O)c1ncccc1Nc1ccc(Nc2ccc(C34CC5CC(CC(C5)C3)C4)cc2Cl)cc1 [Compound 82] | 67% | – |
| O=C(O)c1ccncc1Nc1ccc(Nc2ccc(C34CC5CC(CC(C5)C3)C4)cc2Cl)cc1 [Compound 83] | 65% | – |
| O=C(O)c1cncnc1Nc1ccc(Nc2ccc(C34CC5CC(CC(C5)C3)C4)cc2Cl)cc1 [Compound 85] | 20% | – |
| O=C(O)C1CCNCC1Nc1ccc(Nc2ccc(C34CC5CC(CC(C5)C3)C4)cc2Cl)cc1 (centres unmarked) [Compound 88] | 12% | – |
| O=C(O)c1ccnc(Nc2ccc(Nc3ccc(C45CC6CC(CC(C6)C4)C5)cc3Cl)cc2)c1 [Compound 89] | 90% | – |

More lines, now with the values ahead:

| inhibition at 10 µM | % of inhibition of TEAD2 palmitoylation at 10 μM | SMILES |
| --- | --- | --- |
| 0% | – | COC(=O)c1ccccc1Nc1cc(Nc2ccc(C34CC5CC(CC(C5)C3)C4)cc2)cc(C(F)(F)F)c1 [Compound 3] |
| 0% | – | COC(=O)c1ccccc1Nc1ccc(C(=O)Nc2ccc(C34CC5CC(CC(C5)C3)C4)cc2)cc1 [Compound 4] |
| 0% | – | COC(=O)c1ccccc1Nc1ccc(C(=O)Nc2ccc(C34CC5CC(CC(C5)C3)C4)cc2Br)cc1 [Compound 5] |
| 0% | – | COC(=O)c1ccccc1Nc1ccc(C(=O)Nc2ccc(C34CC5CC(CC(C5)C3)C4)cc2Cl)cc1 [Compound 6] |
| 85% | – | CN(c1ccc(Nc2ncccc2C(=O)OCCO)cc1)c1ccc(C23CC4CC(CC(C4)C2)C3)cc1Cl [Compound 12] |
| 26% | – | Cc1ccccc1Nc1ccc(Nc2ccc(C34CC5CC(CC(C5)C3)C4)cc2)cc1 [Compound 13] |
| 0% | – | CCOC(=O)/C=C/c1ccccc1Nc1ccc(Nc2ccc(C34CC5CC(CC(C5)C3)C4)cc2)cc1 [Compound 14] |
| 12% | – | O=C1CCc2ccccc2N1c1ccc(Nc2ccc(C34CC5CC(CC(C5)C3)C4)cc2)cc1 [Compound 15] |
| 35% | – | O=S1(=O)N=C(Nc2ccc(Nc3ccc(C45CC6CC(CC(C6)C4)C5)cc3Cl)cc2)c2ccccc21 [Compound 18] |
| 90% | – | O=C(O)c1ccccc1Nc1cccc(Nc2ccc(C34CC5CC(CC(C5)C3)C4)cc2)c1 [Compound 25] |
| 90% | – | O=C(O)c1cccnc1Nc1cc(Nc2ccc(C34CC5CC(CC(C5)C3)C4)cc2)cc(C(F)(F)F)c1 [Compound 27] |
| 10% | – | Cc1ccc(Nc2cc(Nc3ccc(C45CC6CC(CC(C6)C4)C5)cc3)cc(C(F)(F)F)c2)c(C(=O)O)c1 [Compound 28] |
| 91% | – | O=C(O)c1ccccc1Nc1cc(F)cc(Nc2ccc(C34CC5CC(CC(C5)C3)C4)cc2)c1 [Compound 30] |
| 14% | – | O=C(O)c1ccccc1Nc1ccc(Nc2ccc(C34CC5CC(CC(C5)C3)C4)cc2)nc1 [Compound 34] |
| – | 63% and 86% | O=C(Nc1ccc(C23CC4CC(CC(C4)C2)C3)cc1)c1ccc(Nc2ccccc2C(=O)O)cc1 [Compound 35] |
| 30% | – | O=C(Nc1ccc(C23CC4CC(CC(C4)C2)C3)cc1Cl)c1ccc(Nc2ccccc2C(=O)O)cc1 [Compound 37] |
| 76% | – | O=C(O)C1CCCCC1Nc1ccc(Nc2ccc(C34CC5CC(CC(C5)C3)C4)cc2Cl)cc1 (centres unmarked) [Compound 46] |
| 79% | – | Cc1ccccc1-c1ccc(Nc2ccc(Nc3ccccc3C(=O)O)cc2)c(Cl)c1 [Compound 51] |
| 5% | – | O=C(O)c1ccccc1Nc1ccc(Nc2ccc(-c3ccccc3C(F)(F)F)cc2Cl)cc1 [Compound 53] |
| 70% | – | Cc1ccccc1-c1cc(Cl)c(Nc2ccc(Nc3ccccc3C(=O)O)cc2)cc1C [Compound 61] |
| 65% | – | O=C(O)c1ccccc1Nc1ccnc(Nc2ccc(C34CC5CC(CC(C5)C3)C4)cc2Cl)n1 [Compound 62] |
| 31% | – | CC(C)(C)OC(=O)N(c1cnc(Nc2ccc(C34CC5CC(CC(C5)C3)C4)cc2Cl)cn1)c1ccccc1C(=O)O [Compound 74] |
| 63% | – | O=C(O)c1cnccc1Nc1ccc(Nc2ccc(C34CC5CC(CC(C5)C3)C4)cc2Cl)cc1 [Compound 75] |
| 34% | – | CC(C)(C)OC(=O)N(c1ccc(Nc2ccc(C34CC5CC(CC(C5)C3)C4)cc2Cl)cn1)c1ccccc1C(=O)O [Compound 76] |
| 40% | – | O=C(O)c1ccccc1Nc1ccc(Nc2ccc(C34CC5CC(CC(C5)C3)C4)cc2)cc1C(F)(F)F [Compound 80] |
| 98% | – | O=C(O)c1cccc(Nc2ccc(Nc3ccc(C45CC6CC(CC(C6)C4)C5)cc3Cl)cc2)c1 [Compound 84] |
| 54% | – | O=C(O)c1nccnc1Nc1ccc(Nc2ccc(C34CC5CC(CC(C5)C3)C4)cc2Cl)cc1 [Compound 86] |
| 4% | – | CC(C)c1ccccc1-c1ccc(NC(=O)C2CN(CC(=O)O)C2)cc1 [Compound 87] |
